Test results from the kinase profiling compilation of Christmann-Franck et al. (2016).

Key:
Test in all cases: KINOMEscan competition binding
Details in all cases: compound 10.0 µM
CRK2 (P.falciparum) = CRK2 (P.falciparum) (UniProt P61075)
RET (human) = RET (human) (UniProt P07949)
MAP3K10 (human) = MAP3K10 (human) (UniProt Q02779)
CDK3 (human) = CDK3 (human) (UniProt Q00526)
CAMK4 (human) = CAMK4 (human) (UniProt Q16566)
ACVRL1 (human) = ACVRL1 (human) (UniProt P37023)
LRRK2 (human) = LRRK2 (human) (UniProt Q5S007)
MAP3K11 (human) = MAP3K11 (human) (UniProt Q16584)
ZAP70 (human) = ZAP70 (human) (UniProt P43403)
SIK1 (human) = SIK1 (human) (UniProt P57059)
CDK5 (human) = CDK5 (human) (UniProt Q00535)
MAPKAPK5 (human) = MAPKAPK5 (human) (UniProt Q8IW41)
PIP5K1C (human) = PIP5K1C (human) (UniProt O60331)
MTOR (human) = MTOR (human) (UniProt P42345)
CSNK1A1 (human) = CSNK1A1 (human) (UniProt P48729)
YSK4 (human) = YSK4 (human) (UniProt Q56UN5)
[1] = tested on: PIK3CA (human), P42336 [E542K]
SBK1 (human) = SBK1 (human) (UniProt Q52WX2)
TLK2 (human) = TLK2 (human) (UniProt Q86UE8)
RIPK2 (human) = RIPK2 (human) (UniProt O43353)
MYLK2 (human) = MYLK2 (human) (UniProt Q9H1R3)
Chain of MYLK2 (human) (Q9H1R3 whole entry, looked up): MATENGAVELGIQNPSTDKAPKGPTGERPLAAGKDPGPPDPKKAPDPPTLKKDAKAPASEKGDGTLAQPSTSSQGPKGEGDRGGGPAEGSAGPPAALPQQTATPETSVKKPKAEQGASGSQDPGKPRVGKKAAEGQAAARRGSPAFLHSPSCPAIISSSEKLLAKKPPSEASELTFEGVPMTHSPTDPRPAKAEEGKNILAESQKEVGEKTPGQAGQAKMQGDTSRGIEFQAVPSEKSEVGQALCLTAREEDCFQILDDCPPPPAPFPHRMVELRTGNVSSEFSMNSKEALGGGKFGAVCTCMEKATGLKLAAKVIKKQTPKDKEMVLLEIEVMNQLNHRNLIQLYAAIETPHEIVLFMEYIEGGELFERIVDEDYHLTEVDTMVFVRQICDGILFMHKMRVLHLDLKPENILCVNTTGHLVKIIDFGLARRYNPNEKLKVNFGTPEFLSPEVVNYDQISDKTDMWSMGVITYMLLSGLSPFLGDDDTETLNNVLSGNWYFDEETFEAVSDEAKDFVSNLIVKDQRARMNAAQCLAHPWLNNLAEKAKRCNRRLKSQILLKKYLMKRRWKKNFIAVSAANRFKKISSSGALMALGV

WEE1 (human) = WEE1 (human) (UniProt P30291)
EPHA5 (human) = EPHA5 (human) (UniProt P54756)
STK10 (human) = STK10 (human) (UniProt O94804)
RPS6KA5 KD2 (human) = RPS6KA5 KD2 (human) (UniProt O75582)
Chain of RPS6KA5 KD2 (human) (O75582 whole entry, looked up): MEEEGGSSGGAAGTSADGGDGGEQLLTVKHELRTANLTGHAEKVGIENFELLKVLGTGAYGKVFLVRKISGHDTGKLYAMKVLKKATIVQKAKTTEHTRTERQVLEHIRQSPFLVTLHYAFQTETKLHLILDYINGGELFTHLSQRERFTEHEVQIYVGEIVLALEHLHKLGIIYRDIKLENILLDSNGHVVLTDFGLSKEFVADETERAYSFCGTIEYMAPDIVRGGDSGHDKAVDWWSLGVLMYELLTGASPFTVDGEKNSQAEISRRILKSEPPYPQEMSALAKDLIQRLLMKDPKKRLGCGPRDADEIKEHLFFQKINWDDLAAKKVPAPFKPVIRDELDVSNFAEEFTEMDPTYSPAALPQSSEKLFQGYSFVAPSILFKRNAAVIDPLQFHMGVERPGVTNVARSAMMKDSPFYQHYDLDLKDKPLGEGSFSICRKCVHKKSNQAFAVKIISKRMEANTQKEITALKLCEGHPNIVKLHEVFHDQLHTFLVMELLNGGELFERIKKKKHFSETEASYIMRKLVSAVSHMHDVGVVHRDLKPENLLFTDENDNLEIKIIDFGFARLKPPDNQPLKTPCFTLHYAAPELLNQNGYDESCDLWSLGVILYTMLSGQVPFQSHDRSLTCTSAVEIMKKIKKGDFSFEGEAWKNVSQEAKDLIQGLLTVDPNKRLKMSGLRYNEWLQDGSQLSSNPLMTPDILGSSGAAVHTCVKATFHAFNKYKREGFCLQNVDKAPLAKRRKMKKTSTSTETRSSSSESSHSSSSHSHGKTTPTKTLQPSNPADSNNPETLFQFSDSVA

NUAK1 (human) = NUAK1 (human) (UniProt O60285)
Chain of NUAK1 (human) (O60285 whole entry, looked up): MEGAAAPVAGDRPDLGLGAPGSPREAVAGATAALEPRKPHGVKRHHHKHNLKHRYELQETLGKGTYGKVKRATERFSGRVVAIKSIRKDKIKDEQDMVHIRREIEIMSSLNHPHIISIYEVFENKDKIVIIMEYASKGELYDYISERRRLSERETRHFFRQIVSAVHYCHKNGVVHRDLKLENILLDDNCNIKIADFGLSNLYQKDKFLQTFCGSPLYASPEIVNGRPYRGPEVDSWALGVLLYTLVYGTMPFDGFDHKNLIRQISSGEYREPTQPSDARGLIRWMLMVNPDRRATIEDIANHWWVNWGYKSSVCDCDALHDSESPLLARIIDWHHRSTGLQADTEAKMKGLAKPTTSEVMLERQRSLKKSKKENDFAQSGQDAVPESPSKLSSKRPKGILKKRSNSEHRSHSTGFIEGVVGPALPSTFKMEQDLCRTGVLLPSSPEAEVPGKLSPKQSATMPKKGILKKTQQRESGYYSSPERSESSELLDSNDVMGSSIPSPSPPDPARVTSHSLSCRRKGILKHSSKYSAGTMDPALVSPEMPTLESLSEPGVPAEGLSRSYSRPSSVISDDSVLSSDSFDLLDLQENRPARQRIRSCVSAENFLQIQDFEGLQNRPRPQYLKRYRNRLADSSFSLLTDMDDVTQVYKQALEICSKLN

CDK4 CCND1 (human) = CDK4 CCND1 (human) (UniProt P11802+P24385)
PIK3CA (human) = PIK3CA (human) (UniProt P42336)
BRAF (human) = BRAF (human) (UniProt P15056)
CDK2 (human) = CDK2 (human) (UniProt P24941)
[2] = tested on: PIK3CA (human), P42336 [H1047L]
Chain of PIK3CA (human), P42336 [H1047L] (P42336 whole entry H1047L, looked up): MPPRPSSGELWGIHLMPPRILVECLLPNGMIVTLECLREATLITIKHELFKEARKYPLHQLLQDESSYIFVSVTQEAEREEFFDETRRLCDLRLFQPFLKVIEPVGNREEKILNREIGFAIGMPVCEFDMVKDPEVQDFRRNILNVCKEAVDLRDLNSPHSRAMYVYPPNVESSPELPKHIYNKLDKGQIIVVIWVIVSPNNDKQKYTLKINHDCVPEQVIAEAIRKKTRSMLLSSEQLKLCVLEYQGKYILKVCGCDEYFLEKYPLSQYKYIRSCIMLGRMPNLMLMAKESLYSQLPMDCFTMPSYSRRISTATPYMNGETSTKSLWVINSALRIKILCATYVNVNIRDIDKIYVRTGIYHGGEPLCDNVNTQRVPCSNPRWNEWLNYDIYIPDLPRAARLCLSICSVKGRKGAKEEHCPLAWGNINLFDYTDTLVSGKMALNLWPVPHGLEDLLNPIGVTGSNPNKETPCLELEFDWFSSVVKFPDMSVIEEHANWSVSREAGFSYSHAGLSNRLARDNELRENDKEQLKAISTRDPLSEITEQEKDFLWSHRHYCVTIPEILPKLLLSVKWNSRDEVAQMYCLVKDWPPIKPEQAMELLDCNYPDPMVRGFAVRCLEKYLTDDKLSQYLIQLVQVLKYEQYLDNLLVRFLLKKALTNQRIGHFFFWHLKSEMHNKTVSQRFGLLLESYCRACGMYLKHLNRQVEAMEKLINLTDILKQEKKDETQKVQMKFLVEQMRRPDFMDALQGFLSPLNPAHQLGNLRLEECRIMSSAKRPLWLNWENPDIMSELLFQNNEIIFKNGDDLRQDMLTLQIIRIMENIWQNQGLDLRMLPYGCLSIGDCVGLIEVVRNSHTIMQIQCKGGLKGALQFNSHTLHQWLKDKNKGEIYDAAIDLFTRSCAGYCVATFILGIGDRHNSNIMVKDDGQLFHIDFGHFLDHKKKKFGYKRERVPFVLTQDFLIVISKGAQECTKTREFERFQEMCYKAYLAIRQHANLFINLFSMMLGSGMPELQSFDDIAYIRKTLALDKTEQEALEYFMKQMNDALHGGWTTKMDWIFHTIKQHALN

AURKC (human) = AURKC (human) (UniProt Q9UQB9)
ULK2 (human) = ULK2 (human) (UniProt Q8IYT8)
NEK2 (human) = NEK2 (human) (UniProt P51955)
MAP3K3 (human) = MAP3K3 (human) (UniProt Q99759)
Chain of MAP3K3 (human) (Q99759 whole entry, looked up): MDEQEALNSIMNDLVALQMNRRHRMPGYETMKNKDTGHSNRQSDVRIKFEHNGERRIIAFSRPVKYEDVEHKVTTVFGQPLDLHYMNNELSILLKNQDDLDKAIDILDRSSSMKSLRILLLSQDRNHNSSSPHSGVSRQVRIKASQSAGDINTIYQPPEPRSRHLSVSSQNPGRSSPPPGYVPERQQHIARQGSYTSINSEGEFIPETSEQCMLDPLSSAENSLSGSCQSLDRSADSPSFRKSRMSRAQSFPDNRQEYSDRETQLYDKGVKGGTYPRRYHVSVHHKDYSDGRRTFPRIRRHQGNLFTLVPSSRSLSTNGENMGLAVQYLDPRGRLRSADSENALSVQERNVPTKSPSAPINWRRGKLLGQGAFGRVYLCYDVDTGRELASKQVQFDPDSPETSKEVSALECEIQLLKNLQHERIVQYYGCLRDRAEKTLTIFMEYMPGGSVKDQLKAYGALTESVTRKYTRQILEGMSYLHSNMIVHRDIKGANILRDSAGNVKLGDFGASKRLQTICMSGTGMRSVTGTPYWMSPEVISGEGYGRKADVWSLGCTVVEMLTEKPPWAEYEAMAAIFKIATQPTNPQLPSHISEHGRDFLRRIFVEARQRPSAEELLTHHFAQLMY

SIK2 (human) = SIK2 (human) (UniProt Q9H0K1)
CLK1 (human) = CLK1 (human) (UniProt P49759)

Chain of ACVRL1 (human) (P37023 whole entry, looked up): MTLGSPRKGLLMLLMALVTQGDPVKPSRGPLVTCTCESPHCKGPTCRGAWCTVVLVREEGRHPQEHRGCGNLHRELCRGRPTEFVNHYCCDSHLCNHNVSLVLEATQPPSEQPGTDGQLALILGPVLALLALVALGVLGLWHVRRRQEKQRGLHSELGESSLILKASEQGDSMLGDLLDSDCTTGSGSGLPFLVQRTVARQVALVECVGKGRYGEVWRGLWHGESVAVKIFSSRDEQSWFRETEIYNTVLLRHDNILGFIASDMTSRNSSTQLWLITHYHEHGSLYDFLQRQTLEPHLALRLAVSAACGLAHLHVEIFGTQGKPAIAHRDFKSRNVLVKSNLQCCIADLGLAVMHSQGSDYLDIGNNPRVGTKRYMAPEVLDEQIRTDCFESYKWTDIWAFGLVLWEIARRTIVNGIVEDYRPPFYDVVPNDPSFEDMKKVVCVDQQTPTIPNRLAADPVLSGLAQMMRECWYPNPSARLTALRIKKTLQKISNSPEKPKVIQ
Chain of CAMK4 (human) (Q16566 whole entry, looked up): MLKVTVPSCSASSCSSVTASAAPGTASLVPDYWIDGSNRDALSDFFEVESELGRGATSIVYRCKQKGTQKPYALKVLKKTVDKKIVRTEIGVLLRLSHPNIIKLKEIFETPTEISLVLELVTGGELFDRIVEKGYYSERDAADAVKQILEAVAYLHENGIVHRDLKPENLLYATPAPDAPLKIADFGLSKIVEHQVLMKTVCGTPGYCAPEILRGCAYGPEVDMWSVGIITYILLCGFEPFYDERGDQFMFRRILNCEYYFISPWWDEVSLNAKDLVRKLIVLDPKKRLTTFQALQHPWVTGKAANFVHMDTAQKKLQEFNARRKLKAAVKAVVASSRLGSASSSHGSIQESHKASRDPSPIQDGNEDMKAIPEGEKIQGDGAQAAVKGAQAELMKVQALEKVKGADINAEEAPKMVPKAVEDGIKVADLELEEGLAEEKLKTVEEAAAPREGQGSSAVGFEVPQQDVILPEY
Chain of CDK3 (human) (Q00526 whole entry, looked up): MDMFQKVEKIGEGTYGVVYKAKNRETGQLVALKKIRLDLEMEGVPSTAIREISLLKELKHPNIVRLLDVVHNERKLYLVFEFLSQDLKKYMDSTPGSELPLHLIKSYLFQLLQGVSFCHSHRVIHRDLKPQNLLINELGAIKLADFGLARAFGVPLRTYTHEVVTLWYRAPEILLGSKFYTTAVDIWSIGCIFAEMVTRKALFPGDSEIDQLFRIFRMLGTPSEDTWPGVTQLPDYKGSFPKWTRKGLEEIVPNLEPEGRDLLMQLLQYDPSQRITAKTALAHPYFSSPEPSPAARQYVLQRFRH

Structure (SMILES)	kinase still bound, per cent of control (CRK2 (P.falciparum)) [%]	kinase still bound, per cent of control (RET (human)) [%]	kinase still bound, per cent of control (MAP3K10 (human)) [%]	kinase still bound, per cent of control (CDK3 (human)) [%]	kinase still bound, per cent of control (CAMK4 (human)) [%]	kinase still bound, per cent of control (ACVRL1 (human)) [%]	kinase still bound, per cent of control (LRRK2 (human)) [%]	kinase still bound, per cent of control (MAP3K11 (human)) [%]	kinase still bound, per cent of control (ZAP70 (human)) [%]	kinase still bound, per cent of control (SIK1 (human)) [%]	kinase still bound, per cent of control (MAPKAPK5 (human)) [%]	kinase still bound, per cent of control (PIP5K1C (human)) [%]	kinase still bound, per cent of control (MTOR (human)) [%]	kinase still bound, per cent of control (CSNK1A1 (human)) [%]	kinase still bound, per cent of control (YSK4 (human)) [%]	kinase still bound, per cent of control [1] [%]	kinase still bound, per cent of control (SBK1 (human)) [%]	kinase still bound, per cent of control (TLK2 (human)) [%]	kinase still bound, per cent of control (RIPK2 (human)) [%]	kinase still bound, per cent of control (MYLK2 (human)) [%]	further results
CCCS(=O)(=O)Nc1ccc(F)c(C(=O)c2c[nH]c3ncc(Cl)cc23)c1F	91	76	87	98	100	100	37	88	85	2.6	100	79	58	84	29	100	92	75	8.3	64	kinase still bound, per cent of control (CDK5 (human)): 57%; kinase still bound, per cent of control (WEE1 (human)): 100%; kinase still bound, per cent of control (EPHA5 (human)): 100%; kinase still bound, per cent of control (STK10 (human)): 68%; kinase still bound, per cent of control (RPS6KA5 KD2 (human)): 86%; kinase still bound, per cent of control (NUAK1 (human)): 100%; kinase still bound, per cent of control (CDK4 CCND1 (human)): 64%; kinase still bound, per cent of control (PIK3CA (human)): 82%; kinase still bound, per cent of control (BRAF (human)): 0%; kinase still bound, per cent of control (CDK2 (human)): 78%; kinase still bound, per cent of control [2]: 100%; kinase still bound, per cent of control (AURKC (human)): 100%; kinase still bound, per cent of control (ULK2 (human)): 60%; kinase still bound, per cent of control (NEK2 (human)): 49%; kinase still bound, per cent of control (MAP3K3 (human)): 61%; kinase still bound, per cent of control (SIK2 (human)): 84%
CCN(CCO)CCCOc1ccc2c(Nc3cc(CC(=O)Nc4cccc(F)c4)[nH]n3)ncnc2c1	100	0.25	92	95	100	97	100	100	84	88	100	75	100	49	39	100	100	100	17	87	kinase still bound, per cent of control (CLK1 (human)): 69%; kinase still bound, per cent of control (CDK5 (human)): 100%; kinase still bound, per cent of control (WEE1 (human)): 100%; kinase still bound, per cent of control (STK10 (human)): 11%; kinase still bound, per cent of control (RPS6KA5 KD2 (human)): 100%; kinase still bound, per cent of control (NUAK1 (human)): 60%; kinase still bound, per cent of control (CDK4 CCND1 (human)): 92%; kinase still bound, per cent of control (PIK3CA (human)): 100%; kinase still bound, per cent of control (BRAF (human)): 100%; kinase still bound, per cent of control (CDK2 (human)): 84%; kinase still bound, per cent of control [2]: 73%; kinase still bound, per cent of control (AURKC (human)): 19%; kinase still bound, per cent of control (ULK2 (human)): 100%; kinase still bound, per cent of control (NEK2 (human)): 83%; kinase still bound, per cent of control (MAP3K3 (human)): 70%; kinase still bound, per cent of control (SIK2 (human)): 70%
COc1cc2c(Nc3ccc(NC(=O)c4ccccc4)cc3)ncnc2cc1OCCCN1CCOCC1	100	0.15	86	100	100	85	73	20	100	82	100	69	70	63	23	100	92	100	2.8	100	kinase still bound, per cent of control (CLK1 (human)): 100%; kinase still bound, per cent of control (WEE1 (human)): 100%; kinase still bound, per cent of control (EPHA5 (human)): 100%; kinase still bound, per cent of control (STK10 (human)): 0.15%; kinase still bound, per cent of control (RPS6KA5 KD2 (human)): 100%; kinase still bound, per cent of control (NUAK1 (human)): 92%; kinase still bound, per cent of control (CDK4 CCND1 (human)): 93%; kinase still bound, per cent of control (PIK3CA (human)): 100%; kinase still bound, per cent of control (BRAF (human)): 100%; kinase still bound, per cent of control (CDK2 (human)): 82%; kinase still bound, per cent of control [2]: 99%; kinase still bound, per cent of control (AURKC (human)): 23%; kinase still bound, per cent of control (ULK2 (human)): 91%; kinase still bound, per cent of control (NEK2 (human)): 51%; kinase still bound, per cent of control (MAP3K3 (human)): 18%; kinase still bound, per cent of control (SIK2 (human)): 63%
